# Test: Hydrolysis stability of monomer in water/ethanol/phosphoric acid (1H-NMR)
# Format: physicochemical
# Text: A major advantage of the amides according to the invention is to be seen in their hydrolysis stability. Aqueous solutions of the amides are thus also storage-stable in the presence of acidic compounds. As a linking of the monomer components via covalent C—C single bonds takes place on polymerization, this also applies to the corresponding polymers.
substance,measurement,setting,value
Glycerine dimethacrylate,Hydrolysis stability,"20 wt.-% solution in 1:1:1 water, ethanol and 10% phosphoric acid, 37° C., 4 weeks, 1H-NMR",−
same,Hydrolysis stability in the presence of acid (in words),"aqueous solution, in the presence of phosphoric acid / acidic compounds",completely split to form glycerine and methacrylic acid

# Source: patent US6953832B2, “Dental materials based on polyfunctional amides” (Ivoclar Vivadent AG, priority 2001, dated 2005)
